Reference: ChEMBL document CHEMBL1128968, “Phosphinic acid inhibitors of matrix metalloproteinases” (Bioorg Med Chem Lett, 1996)

Legend:
Interstitial collagenase = target: T1, Interstitial collagenase (Homo sapiens, UniProt P03956); assay: Inhibition of collagenase-1 (MMP-1).
T1 sequence (P03956 whole entry): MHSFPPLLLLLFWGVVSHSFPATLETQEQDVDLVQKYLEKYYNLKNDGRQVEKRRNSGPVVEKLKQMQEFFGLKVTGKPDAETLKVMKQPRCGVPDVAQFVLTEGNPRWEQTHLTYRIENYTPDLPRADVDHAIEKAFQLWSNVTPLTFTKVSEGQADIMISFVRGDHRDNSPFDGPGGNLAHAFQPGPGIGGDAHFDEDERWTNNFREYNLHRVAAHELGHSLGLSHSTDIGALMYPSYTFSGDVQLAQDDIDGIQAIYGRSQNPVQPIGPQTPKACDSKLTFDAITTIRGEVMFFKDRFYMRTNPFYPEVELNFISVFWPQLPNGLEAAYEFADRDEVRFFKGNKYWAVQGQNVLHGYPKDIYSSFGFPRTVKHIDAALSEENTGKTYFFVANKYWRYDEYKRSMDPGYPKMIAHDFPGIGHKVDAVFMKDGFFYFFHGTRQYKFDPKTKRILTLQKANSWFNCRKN

[1] = target: T2, 72 kDa type IV collagenase (Homo sapiens, UniProt P08253); assay: Inhibition of gelatinase-A (MMP-2) at a concentration of 1 uM
Target sequence in this assay (P08253 110-660 limits assumed): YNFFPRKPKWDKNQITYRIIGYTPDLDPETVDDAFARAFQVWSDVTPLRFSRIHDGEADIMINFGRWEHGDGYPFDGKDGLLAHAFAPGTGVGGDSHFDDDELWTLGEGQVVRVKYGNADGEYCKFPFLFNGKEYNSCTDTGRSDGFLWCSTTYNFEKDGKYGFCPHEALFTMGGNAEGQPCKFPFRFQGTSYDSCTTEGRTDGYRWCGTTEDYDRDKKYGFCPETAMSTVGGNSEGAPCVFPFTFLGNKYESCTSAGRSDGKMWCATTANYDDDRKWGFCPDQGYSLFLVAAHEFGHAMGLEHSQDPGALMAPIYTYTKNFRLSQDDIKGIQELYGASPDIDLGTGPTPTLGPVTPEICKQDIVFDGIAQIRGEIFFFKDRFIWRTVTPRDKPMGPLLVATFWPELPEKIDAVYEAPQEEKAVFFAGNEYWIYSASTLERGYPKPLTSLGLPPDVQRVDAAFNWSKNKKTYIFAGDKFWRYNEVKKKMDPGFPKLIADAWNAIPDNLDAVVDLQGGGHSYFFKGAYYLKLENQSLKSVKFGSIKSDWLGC

Stromelysin-1 [2] = target: T3, Stromelysin-1 (Homo sapiens, UniProt P08254); assay: Inhibition of stromelysin-1 (MMP-3).
T3 sequence (P08254 whole entry): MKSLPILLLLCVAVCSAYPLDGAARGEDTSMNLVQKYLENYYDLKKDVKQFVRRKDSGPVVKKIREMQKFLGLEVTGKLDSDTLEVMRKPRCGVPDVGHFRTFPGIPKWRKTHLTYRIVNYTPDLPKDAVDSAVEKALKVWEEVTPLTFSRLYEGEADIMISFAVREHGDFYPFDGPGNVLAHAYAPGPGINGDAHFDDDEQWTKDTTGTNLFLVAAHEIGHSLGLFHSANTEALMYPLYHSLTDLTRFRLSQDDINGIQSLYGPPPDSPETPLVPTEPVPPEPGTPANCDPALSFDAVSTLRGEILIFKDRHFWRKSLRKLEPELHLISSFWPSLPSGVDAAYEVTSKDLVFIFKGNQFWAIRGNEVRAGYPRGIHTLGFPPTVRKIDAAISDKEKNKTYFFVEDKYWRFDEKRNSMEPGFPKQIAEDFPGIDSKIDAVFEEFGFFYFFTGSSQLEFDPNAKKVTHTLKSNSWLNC

[3] = target: T2, 72 kDa type IV collagenase; assay: Inhibition of gelatinase-A (MMP-2).
Target sequence in this assay (P08253 whole entry): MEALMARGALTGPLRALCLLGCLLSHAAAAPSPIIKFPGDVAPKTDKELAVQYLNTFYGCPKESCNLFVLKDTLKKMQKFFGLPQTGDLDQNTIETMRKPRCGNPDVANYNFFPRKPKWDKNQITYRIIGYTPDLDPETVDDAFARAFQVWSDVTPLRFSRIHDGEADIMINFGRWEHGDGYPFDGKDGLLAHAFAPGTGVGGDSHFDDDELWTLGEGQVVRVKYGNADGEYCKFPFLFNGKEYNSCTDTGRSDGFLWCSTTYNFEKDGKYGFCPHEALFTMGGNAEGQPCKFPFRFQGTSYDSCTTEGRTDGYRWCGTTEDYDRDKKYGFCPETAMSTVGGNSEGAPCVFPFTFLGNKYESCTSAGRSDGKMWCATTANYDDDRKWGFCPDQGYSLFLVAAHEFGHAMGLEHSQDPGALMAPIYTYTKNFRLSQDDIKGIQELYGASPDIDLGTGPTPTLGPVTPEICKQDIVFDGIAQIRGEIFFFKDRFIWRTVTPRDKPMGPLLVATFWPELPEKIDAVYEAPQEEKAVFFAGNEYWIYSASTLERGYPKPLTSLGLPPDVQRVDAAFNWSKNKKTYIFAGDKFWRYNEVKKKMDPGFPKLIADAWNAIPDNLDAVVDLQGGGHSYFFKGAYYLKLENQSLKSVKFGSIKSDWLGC

Stromelysin-1 [4] = target: T3, Stromelysin-1; assay: Inhibition of stromelysin-1 (MMP-3)
[5] = target: T2, 72 kDa type IV collagenase; assay: Inhibition of gelatinase-A (MMP-2)
Target sequence in this assay (P08253 whole entry): as above

Ki (Interstitial collagenase) [µM]	inhibition [1] [%]	Ki (Stromelysin-1 [2]) [µM]	Ki [3] [µM]	SMILES	also measured
≥ 10	89	0.024	–	CC(C)C[C@H](NC(=O)[C@H](CCc1ccccc1)CP(=O)(O)CCCCNC(=O)[C@H]1CCCN1C(=O)c1ccccc1)C(=O)Nc1ccccc1	–
≥ 10	46	0.67	–	CC(C)C[C@H](NC(=O)[C@H](CCc1ccccc1)CP(=O)(O)CCC(=O)NCCCc1ccccc1)C(=O)Nc1ccccc1	–
≥ 10	86	0.063	–	CC(C)C[C@H](NC(=O)[C@H](CCc1ccccc1)CP(=O)(O)CCCCNC(=O)OCc1ccccc1)C(=O)Nc1ccccc1	–
≥ 10	–	0.44	4.4	COc1ccccc1CC[C@H](CP(=O)(O)CCCCN1C(=O)c2ccccc2C1=O)C(=O)N[C@@H](CC(C)C)C(=O)Nc1ccccc1	–
≥ 10	85	0.07	–	CC(C)C[C@H](NC(=O)[C@H](CCc1ccccc1)CP(=O)(O)CCCCNC(=O)Nc1ccccc1)C(=O)Nc1ccccc1	–
≥ 10	–	–	–	CC(C)C[C@H](NC(=O)[C@H](CCc1ccccc1)CP(=O)(O)CCC(=O)NCc1ccccc1)C(=O)Nc1ccccc1	Ki (Stromelysin-1 [4]): 0.54 µM
≥ 10	–	0.0055	0.0073	CC(C)C[C@H](NC(=O)[C@H](CCc1ccccc1)CP(=O)(O)CCCCN1Cc2ccccc2C1=O)C(=O)Nc1ccccc1	–
–	–	–	–	CC(C)C[C@H](NC(=O)[C@H](Cc1ccccc1)NP(=O)(O)CCCCN1C(=O)c2ccccc2C1=O)C(=O)NCc1ccccc1	IC50 (Interstitial collagenase): 30 µM; IC50 (Stromelysin-1 [2]): 2.8 µM
≥ 10	94	0.016	–	CCOC(=O)NCCCCP(=O)(O)C[C@@H](CCc1ccccc1)C(=O)N[C@@H](CC(C)C)C(=O)Nc1ccccc1	–
≥ 10	–	0.0025	0.0021	COc1cccc(CC[C@H](CP(=O)(O)CCCCN2C(=O)c3ccccc3C2=O)C(=O)N[C@@H](CC(C)C)C(=O)Nc2ccccc2)c1	–
≥ 10	–	0.52	1.3	COC(=O)CCP(=O)(O)C[C@@H](CCc1ccccc1)C(=O)N[C@@H](CC(C)C)C(=O)Nc1ccccc1	–
≥ 10	–	–	0.02	CC(C)C[C@H](NC(=O)[C@H](CCc1ccccc1)CP(=O)(O)CCCCN1C(=O)c2ccccc2C1=O)C(=O)Nc1ccccc1	–
–	–	0.41	–	CC(C)C[C@H](NC(=O)[C@H](CCc1ccccc1)CP(=O)(O)CNC(=O)CN1C(=O)c2ccccc2C1=O)C(=O)Nc1ccccc1	–
≥ 10	90	0.054	–	COC(=O)NCCCCP(=O)(O)C[C@@H](CCc1ccccc1)C(=O)N[C@@H](CC(C)C)C(=O)Nc1ccccc1	–
≥ 10	92	0.026	–	CC(=O)N1CCC[C@@H]1C(=O)NCCCCP(=O)(O)C[C@@H](CCc1ccccc1)C(=O)N[C@@H](CC(C)C)C(=O)Nc1ccccc1	–
≥ 10	58	0.17	–	CC(C)C[C@H](NC(=O)[C@H](CCc1ccccc1)CP(=O)(O)CCC(=O)NCCc1ccccc1)C(=O)Nc1ccccc1	–

Ki (Interstitial collagenase) [µM]	inhibition [1] [%]	Ki (Stromelysin-1 [2]) [µM]	Ki [3] [µM]	SMILES	also measured
≥ 10	–	0.062	0.0061	CC(=O)N1CCC[C@H]1C(=O)NCCCCP(=O)(O)C[C@@H](CCc1ccccc1)C(=O)N[C@@H](CC(C)C)C(=O)Nc1ccccc1	–
≥ 10	–	0.017	–	CCNC(=O)NCCCCP(=O)(O)C[C@@H](CCc1ccccc1)C(=O)N[C@@H](CC(C)C)C(=O)Nc1ccccc1	Ki [5]: 0.019 µM
–	–	–	–	CC(C)C[C@H](NC(=O)[C@H](Cc1ccccc1)OP(=O)(O)CCCCN1C(=O)c2ccccc2C1=O)C(=O)NCc1ccccc1	IC50 (Interstitial collagenase): > 32 µM; IC50 (Stromelysin-1 [2]): > 200 µM
≥ 10	–	0.03	0.13	CC(C)C[C@H](NC(=O)[C@H](CCc1ccccc1)CP(=O)(O)CCCCNC(=O)Cc1ccccc1)C(=O)Nc1ccccc1	–
≥ 10	87	0.13	–	CNC(=O)NCCCCP(=O)(O)C[C@@H](CCc1ccccc1)C(=O)N[C@@H](CC(C)C)C(=O)Nc1ccccc1	–
≥ 10	–	0.0045	0.0048	CC(C)C[C@H](NC(=O)[C@H](CCc1ccccc1)CP(=O)(O)C/C=C/CN1C(=O)c2ccccc2C1=O)C(=O)Nc1ccccc1	–
–	–	–	–	CC(C)C[C@H](NP(=O)(O)CCCCN1C(=O)c2ccccc2C1=O)C(=O)N[C@@H](Cc1c[nH]c2ccccc12)C(=O)NCc1ccccc1	IC50 (Interstitial collagenase): 0.05 µM; IC50 (Stromelysin-1 [2]): 0.26 µM
≥ 10	13	3.7	–	CC(C)C[C@H](NC(=O)[C@H](CCc1ccccc1)CP(=O)(O)CCCCN)C(=O)Nc1ccccc1	–
≥ 10	60	0.47	–	CC(C)C[C@H](NC(=O)[C@H](CCc1ccccc1)CP(=O)(O)CCC(=O)Nc1ccccc1)C(=O)Nc1ccccc1	–
–	–	–	–	CC(C)C[C@H](NC(=O)[C@H](Cc1ccccc1)CP(=O)(O)CCCCN1C(=O)c2ccccc2C1=O)C(=O)NCc1ccccc1	IC50 (Interstitial collagenase): 4.1 µM; IC50 (Stromelysin-1 [2]): 0.43 µM
≥ 10	73	0.056	–	CC(C)C[C@H](NC(=O)[C@H](CCc1ccccc1)CP(=O)(O)CCCCNC(=O)Oc1ccccc1)C(=O)Nc1ccccc1	–
≥ 10	96	0.05	–	CC(C)C[C@H](NC(=O)[C@H](CCc1ccccc1)CP(=O)(O)CCCCNC(=O)NCc1ccccc1)C(=O)Nc1ccccc1	–
≥ 10	–	0.0023	0.012	COc1ccc(CC[C@H](CP(=O)(O)CCCCN2C(=O)c3ccccc3C2=O)C(=O)N[C@@H](CC(C)C)C(=O)Nc2ccccc2)cc1	–
≥ 10	–	0.0057	0.026	CC(C)C[C@H](NC(=O)[C@H](CCc1ccccc1)CP(=O)(O)CCCCNC(=O)c1ccccc1)C(=O)Nc1ccccc1	–
≥ 10	–	0.013	0.0021	CC(C)C[C@H](NC(=O)[C@H](CCc1ccccc1)CP(=O)(O)CCCCNC(=O)[C@@H]1CCCN1C(=O)c1ccccc1)C(=O)Nc1ccccc1	–
≥ 10	–	1.5	0.57	CC(C)C[C@H](NC(=O)[C@H](CCc1ccccc1)CP(C)(=O)O)C(=O)Nc1ccccc1	–
